Measurements from PubChem BioAssay (NCI).
Several values for one entry are separate records, joined by “and”; a condition that tells them apart may be missing. Equal values may be shown once.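 Assay format: 96-well plates, 48-hour exposure. GI50: concentration for 50% inhibition of growth. The concentration for full growth arrest is given as TGI.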

How the values were obtained:
Assay in all cases: NCI-60 cell line screen, 48 h
COLO 205 colon = system: COLO 205 colon
IGROV1 ovarian = system: IGROV1 ovarian
MOLT-4 leukemia = system: MOLT-4 leukemia
NCI-H226 lung = system: NCI-H226 lung
PC-3 prostate = system: PC-3 prostate
SF-268 CNS = system: SF-268 CNS
SK-OV-3 ovarian = system: SK-OV-3 ovarian
SR leukemia = system: SR leukemia
T-47D breast = system: T-47D breast
U251 CNS = system: U251 CNS

Row | Structure (SMILES) | GI50 (COLO 205 colon) | TGI (COLO 205 colon) | GI50 (IGROV1 ovarian) | TGI (IGROV1 ovarian) | GI50 (MOLT-4 leukemia) | TGI (MOLT-4 leukemia) | GI50 (NCI-H226 lung) | TGI (NCI-H226 lung) | GI50 (PC-3 prostate) | TGI (PC-3 prostate) | GI50 (SF-268 CNS) | TGI (SF-268 CNS) | GI50 (SK-OV-3 ovarian) | TGI (SK-OV-3 ovarian) | GI50 (SR leukemia) | TGI (SR leukemia) | GI50 (T-47D breast) | TGI (T-47D breast) | GI50 (U251 CNS) | TGI (U251 CNS)
1 | Cc1ccc(/C=C(/C#N)n2nnc3cccc(F)c32)cc1 | 0.387 µM | 3.3 µM | 0.453 µM | 10.6 µM | 0.394 µM | > 100 µM | 1.76 µM | 8.31 µM | 0.412 µM | 14.6 µM | 0.58 µM | 12.5 µM | 0.931 µM | 55.1 µM | 0.122 µM | > 35.5 µM | 0.509 µM | > 100 µM | 0.489 µM | 14.4 µM
2 | CC(C)(Oc1cccc(N2CCC[C@@H](C(=O)N(Cc3ccc(-c4cn[nH]c4)cc3)C3CC3)C2)c1)C(=O)N1CCNCC1 | 5.91 µM | 20.1 µM | 12.3 µM | 26.8 µM | 12.1 µM | 55.8 µM | 5.43 µM | 21 µM | 13.6 µM | 39.1 µM | 10.7 µM | 24.7 µM | 16.9 µM | 33.6 µM | 7.87 µM | 28.6 µM | 12.6 µM | 34.3 µM | 12.6 µM | 26.3 µM
3 | Nc1nc(N)c2c(Cl)c(CNc3ccc(Cl)c(Cl)c3)ccc2n1 | – | 13 µM | – | 13.4 µM | – | 9.41 µM | – | 33.7 µM | – | 12.7 µM | – | 15.7 µM | – | 16.1 µM | – | 7.36 µM | – | 23.3 µM | – | 11.2 µM
4 | O=C(NNC1=NS(=O)(=O)c2ccccc2N1c1ccccc1)c1cnccn1 | > 100 µM | > 100 µM | > 100 µM | > 100 µM | > 100 µM | > 100 µM | > 100 µM | > 100 µM | > 100 µM | > 100 µM | > 100 µM | > 100 µM | > 100 µM | > 100 µM | > 100 µM | > 100 µM | > 100 µM | > 100 µM | > 100 µM | > 100 µM
5 | C=CCc1cc(O)ccc1O | > 100 µM | > 100 µM | 43.4 µM | > 100 µM | 5.87 µM | 68.9 µM | 44.2 µM | > 100 µM | 12.5 µM | > 100 µM | 16.5 µM | > 100 µM | 94.8 µM | > 100 µM | 9.14 µM | > 100 µM | 16.9 µM | 84.4 µM | 36.4 µM | > 100 µM
6 | N#Cc1ncc(-c2ccc(C(F)(F)F)cc2)c(NC2CCCCCC2)n1 | 13.2 µM | 62.1 µM | 38.8 µM | > 100 µM | 7.42 µM | > 100 µM | 21.8 µM | > 100 µM | 5.67 µM | > 100 µM | 27.7 µM | > 100 µM | > 100 µM | > 100 µM | 16.6 µM | > 100 µM | 6 µM | > 100 µM | – | –
7 | NC(=O)NC(=O)Nc1ccc(Br)cc1 | – | > 28.8 µM | – | > 100 µM | – | > 100 µM | – | > 39.1 µM | – | > 100 µM | – | > 16.5 µM | – | > 100 µM | – | > 100 µM | – | > 100 µM | – | > 52.3 µM
8 | COc1ccc(/C=C/C(=O)OC2CC34CCNC35CC(OC5(OC)C2OC)c2ccc(OC)c(O)c24)cc1O (stereo not given) | 18.4 µM and > 100 µM | 35.7 µM and > 100 µM | – | > 100 µM | 22.4 µM and > 100 µM | 93.1 µM and > 100 µM | – | > 100 µM | 38.9 µM and > 100 µM | > 100 µM | – | > 100 µM | – | > 100 µM | 25.4 µM and > 100 µM | > 100 µM | – | > 100 µM | 38.2 µM and > 100 µM | > 100 µM
9 | Cc1cc2c(C(C)C)c(O)c(O)c(/C=N/O)c2c(O)c1-c1c(C)cc2c(C(C)C)c(O)c(O)c(/C=N/O)c2c1O | 2.88 µM | 9.72 µM | 3.54 µM | 16 µM | 2.23 µM | 7.64 µM | 2.87 µM | 9.72 µM | 2.8 µM | 13.5 µM | 1.54 µM | 11.4 µM | 3.6 µM | 11.9 µM | 3.22 µM | 13.5 µM | 2 µM | 8.42 µM | 1.89 µM | 11.8 µM
10 | CC(=O)NC(CCc1ccc(Cl)c(Cl)c1)c1cccc(O)c(=O)c1 (stereo not given) | 0.363 µM | 18.6 µM | 0.539 µM | 3.33 µM | 0.74 µM | 14.4 µM | 0.633 µM | 14.2 µM | 0.78 µM | 24.7 µM | 0.517 µM | 14.7 µM | 1.43 µM | 17.4 µM | 0.622 µM | 31.1 µM | 1.1 µM | 38.6 µM | 0.428 µM | 11.5 µM
11 | COC(=O)NC1=Nc2ccccc2C(=O)NN1 | – | > 100 µM | – | > 100 µM | – | > 100 µM | – | > 100 µM | – | > 100 µM | – | > 100 µM | – | > 100 µM | – | > 100 µM | – | > 100 µM | – | > 100 µM
12 | c1ccc(C2=Nc3ccccc3N3CNN=C23)cc1 | > 100 µM | > 100 µM | > 100 µM | > 100 µM | 24.2 µM | > 100 µM | > 100 µM | > 100 µM | > 100 µM | > 100 µM | > 100 µM | > 100 µM | > 100 µM | > 100 µM | 25 µM | > 100 µM | 74.8 µM | > 100 µM | > 100 µM | > 100 µM
13 | C/C(=N\O)C1CC(CC(=O)O)C1(C)C (stereo not given) | – | > 100 µM | – | > 100 µM | – | > 100 µM | – | > 100 µM | – | > 100 µM | – | > 100 µM | – | > 100 µM | – | > 100 µM | – | > 100 µM | – | > 100 µM
14 | Cc1[nH]c(N)nc(=S)c1CCCNc1ccccc1 | – | 66.9 µM | – | > 100 µM | – | 21.1 µM | – | > 100 µM | – | > 100 µM | – | > 100 µM | – | > 100 µM | – | 96.9 µM | – | > 100 µM | – | > 100 µM
15 | CCc1nc(N)nc(N)c1-c1ccc(N2CCNCC2)c([N+](=O)[O-])c1 | – | 40.5 µM | – | > 100 µM | – | > 100 µM | – | > 100 µM | – | > 100 µM | – | > 37.5 µM | – | > 100 µM | – | > 100 µM | – | > 100 µM | – | > 100 µM
16 | CCN1C[C@@H](C)n2c(c(O)c3c(=O)n(Cc4ccc(F)c(Cl)c4)nc(C(=O)NC)c32)C1=O | 18.3 µM | 40.3 µM | 3.74 µM | > 100 µM | 4.18 µM | > 100 µM | 3.31 µM | > 100 µM | 3.27 µM | 32 µM | 3.4 µM | 39.8 µM | 3.3 µM | 9.64 µM | 3.22 µM | 14.8 µM | 3.57 µM | > 100 µM | – | –
17 | CCCCNC(=O)CC1=C(C)/C(=C/c2[nH]c(-c3ccc[nH]3)cc2OC)N=C1C | 1.68 µM | 4.04 µM | 3.23 µM | 10.3 µM | 1.93 µM | 9 µM | 2.74 µM | 8.77 µM | 2.36 µM | 14.5 µM | 2.66 µM | 15 µM | 2.76 µM | 8.96 µM | 1.87 µM | 5.43 µM | 2.41 µM | 7.39 µM | 2.86 µM | 12.1 µM
18 | C=C(CC)C(=O)c1ccc(OCC(=O)O)c(Cl)c1Cl | – | 33.1 µM | – | 47.5 µM | – | > 62.2 µM | – | 45.8 µM | – | > 81.8 µM | – | 33.1 µM | – | > 100 µM | – | > 100 µM | – | 27.6 µM | – | 29.7 µM
19 | Nc1ncc(-c2ccc3ncnc(N4CCc5cc(F)c(Cl)cc54)c3c2)cc1C=O | 1.9 µM | > 100 µM | 0.314 µM | 2.39 µM | 1.01 µM | 6.56 µM | 0.861 µM | > 100 µM | 0.824 µM | > 100 µM | 1.02 µM | > 100 µM | 1.04 µM | 6.42 µM | 2.67 µM | > 26 µM | 0.587 µM | > 100 µM | 2.7 µM | > 100 µM
20 | CC1(C)CCC2(C(=O)O)C(O)CC3(C)C(=CCC4C5(C)CCC(OC6OCC(O)C(O)C6OC6OCC(O)C(O)C6OC6OCC(O)C(OC7OC(CO)C(O)C(O)C7O)C6O)C(C)(C)C5CCC43C)C2C1 (stereo not given) | – | > 100 µM | – | > 100 µM | – | – | – | > 100 µM | – | > 100 µM | – | 64 µM | – | 40.2 µM | – | 37.9 µM | – | > 100 µM | – | > 100 µM
21 | CN(C)C/C=C/C(=O)Nc1ccc(C(=O)Nc2cccc(Nc3ncc(Cl)c(-c4c[nH]c5ccccc45)n3)c2)cc1 | 0.0121 µM | 0.0562 µM | 0.0251 µM | – | 0.032 µM | > 100 µM | 0.106 µM | 0.369 µM | 0.0315 µM | 0.191 µM | – | – | 0.12 µM | > 100 µM | 0.017 µM | > 100 µM | 0.0284 µM | > 100 µM | 0.0238 µM | > 38.2 µM
22 | Cc1c(Br)c(Br)c2c3c1nc(N1CCNCC1)n3CCC2 | 1.86 µM | 3.63 µM | 1.41 µM | 3.12 µM | – | – | 1.95 µM | 5.31 µM | 1.04 µM | 2.25 µM | 2.12 µM | 4.78 µM | 3.59 µM | 13.1 µM | 1.6 µM | 5.24 µM | 2.35 µM | 6.36 µM | 1.86 µM | 4.11 µM
